Test [1] has as its target T1, porcine leukocyte 12/15-Lipoxygenase (Sus scrofa, UniProt P16469).
T1 sequence (P16469 1-663): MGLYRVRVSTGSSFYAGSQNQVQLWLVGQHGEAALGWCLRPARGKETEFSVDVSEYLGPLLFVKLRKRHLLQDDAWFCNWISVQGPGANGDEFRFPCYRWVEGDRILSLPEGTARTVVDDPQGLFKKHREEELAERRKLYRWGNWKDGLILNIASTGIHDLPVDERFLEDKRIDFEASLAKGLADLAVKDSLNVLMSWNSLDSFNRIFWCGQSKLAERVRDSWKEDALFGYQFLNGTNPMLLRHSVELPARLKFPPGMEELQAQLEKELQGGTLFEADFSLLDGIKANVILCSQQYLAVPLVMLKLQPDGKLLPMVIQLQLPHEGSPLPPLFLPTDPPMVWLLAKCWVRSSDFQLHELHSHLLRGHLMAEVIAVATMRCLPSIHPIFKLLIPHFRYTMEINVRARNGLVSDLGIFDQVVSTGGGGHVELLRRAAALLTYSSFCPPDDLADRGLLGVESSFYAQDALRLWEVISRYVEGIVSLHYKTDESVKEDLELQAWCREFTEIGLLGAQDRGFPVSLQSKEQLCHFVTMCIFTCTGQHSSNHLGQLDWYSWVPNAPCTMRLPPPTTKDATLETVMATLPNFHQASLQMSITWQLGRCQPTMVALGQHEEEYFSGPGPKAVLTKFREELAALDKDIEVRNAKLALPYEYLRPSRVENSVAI
The experiment in a line: 12/15-Lipoxygenase Enzyme Assay. It is filed as biochemical. Conditions: 70 μM arachidonic acid, 10 minute incubation at room temperature, FOX reagent, absorbance at 620 nm; read-out: inhibition of 12/15-Lipoxygenase with an IC50. An excerpt: This procedure was used for measuring the enzymatic activity of porcine leukocyte 12/15-Lipoxygenase using a […] method based on the ferric oxidation of xylenol orange.
• 96 well flat bottom microfilter plates (VWR, Catalog # 62402-933 9295) • Lipoxygenase screening assay buffer (Cayman, Catalog # 760710) • Porcine leukocyte 12/15-Lipoxygenase (Cayman, Catalog # 60300) • Arachidonic Acid (Sigma, Catalog # A3555) • Xylenol orange tetrasodium salt (Aldrich, Catalog # 227854) • Iron (II) sulfate heptahydrate (Sigma, Catalog # F7002) • Sulfuric acid (95-98%) [18M] • Methanol Procedure
Porcine Leukocyte 12/15-Lipoxygenase (Cayman Cat # 60300) was used in this assay. Test compound and/or vehicle was added to 1.3 μL 12/15-Lipoxygenase in 50 mM Tris-HCl buffer, pH 7.4. The reaction was initiated by addition of 70 μM arachidonic acid in Tris-HCl buffer, pH 7.4, and terminated after a 10 minute incubation at room temperature by addition of FOX reagent (25 mM sulfuric acid, 100 μM xylenol orange, 100 μM iron (II) sulfate, methanol:water 9:1). The yellow color of acidified xylenol orange was converted to a blue color by the lipid hydroperoxide-mediated oxidation of Fe^2+ ions and the interaction of the resulting Fe^3+ ions with the dye. The complex was allowed to form during a 1 hour incubation at room temperature with shaking. Absorbance of the Fe^3+ complex was then measured at […] using a spectrophotometer.
Negative controls contained enzyme during the incubation step but substrate was not added until after the FOX reagent. Compounds are screened at 5 concentrations in triplicate starting at 10 μM

In test [2] the target is T2, human recombinant 5-Lipoxygenase (Homo sapiens, UniProt P09917).
T2 sequence (P09917 1-674): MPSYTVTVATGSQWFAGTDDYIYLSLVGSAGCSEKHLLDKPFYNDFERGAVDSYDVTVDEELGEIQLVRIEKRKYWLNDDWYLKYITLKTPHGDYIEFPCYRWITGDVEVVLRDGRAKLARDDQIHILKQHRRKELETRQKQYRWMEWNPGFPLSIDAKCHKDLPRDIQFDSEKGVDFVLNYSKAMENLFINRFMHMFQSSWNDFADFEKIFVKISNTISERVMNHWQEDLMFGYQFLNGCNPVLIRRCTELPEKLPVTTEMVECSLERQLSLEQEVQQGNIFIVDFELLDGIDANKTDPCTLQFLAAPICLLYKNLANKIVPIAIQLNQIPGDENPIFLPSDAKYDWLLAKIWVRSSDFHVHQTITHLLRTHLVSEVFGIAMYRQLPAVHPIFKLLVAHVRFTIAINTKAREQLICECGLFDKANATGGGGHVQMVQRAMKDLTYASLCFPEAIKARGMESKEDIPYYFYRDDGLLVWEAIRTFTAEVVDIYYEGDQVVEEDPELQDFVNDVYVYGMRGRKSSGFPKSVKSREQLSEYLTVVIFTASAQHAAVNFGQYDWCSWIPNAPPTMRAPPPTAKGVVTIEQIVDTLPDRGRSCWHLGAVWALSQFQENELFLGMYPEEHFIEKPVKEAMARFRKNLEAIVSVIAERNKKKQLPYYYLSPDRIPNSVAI
As to the kind of experiment: 5-Lipoxygenase Enzyme Assay. It is filed as biochemical. As to conditions: 70 μM arachidonic acid, 10 minute incubation at room temperature, FOX reagent, absorbance at 620 nm; read-out: inhibition of 5-Lipoxygenase with an IC50. The method in brief: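 Recombinant human 5-LOX in 50 mM Tris-HCl pH 7.4 was preincubated with compound, then 70 μM arachidonic acid was added for 10 min at room temperature. Hydroperoxide was read by FOX reagent (ferric xylenol orange, 1 h complex formation) as absorbance at 620 nm. Five concentrations in triplicate were tested, starting at 10 μM.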

Test [3] has as its system LTB4 production in human whole blood. The experiment in a line: Inhibition of LTB4 Production in Blood. As to conditions: 1 h, 20 μM A23187, 60 minutes at 37° C., LTB4 in plasma by ELISA, read-out: protection against LTB4 at an EC50. It is filed as cell-based. An outline of the steps:
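Citrated human whole blood preincubated 15 min at 37 °C with compound (top final 30 μM, 1:3 dilutions, quadruplicate), then stimulated with 20 μM A23187 for 60 min at 37 °C. Plasma LTB4 quantified by ELISA; IC50 from percent inhibition versus vehicle.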
(An ELISA detects its analyte on a solid surface through an enzyme-linked reagent.)

For test [4], the system named is release of the leukotriene LTB4 from a neutrophil cell line (MPRO cell line). As to the kind of experiment: LTB4-Cell Assay. Conditions: Mus musculus, 1 h, read-out: inhibition of LTB4 with an EC50. It counts as cell-based. An excerpt: • This procedure was used for measuring the release of the leukotriene LTB4 from a neutrophil cell line using a competitive ELISA technique. Materials and Equipments Materials for Cell Preparation and Experiment • MPRO cell line (ATCC, Catalog # CRL-11422) • Calcium ionophore (A23187) (Sigma, Catalog # C7522) • Nordihydroguaiaretic acid (NDGA) (BioMol ,Catalog # EI101-0001) • Retinoic Acid (all-trans) (ATRA) (Sigma, Catalog # 95152) • Sterile, tissue-culture treated 96-well plates (Corning, Catalog # 3614) Materials for LTB4 ELISA • Precoated (Mouse Anti-Rabbit IgG) EIA 96 Well Strip Plates (Cayman, Catalog # 400004) • Leukotriene B4 AChE Tracer (Cayman Catalog # 420110) • Leukotriene B4 EIA Antiserum (Cayman Catalog # 420112) • Ellman's Reagent (Cayman Catalog # 400050) • EIA Buffer Concentrate (10×) (Cayman Catalog # 400060) • Wash Buffer Concentrate (400×) (Cayman Catalog # 400062) • Plastic plate covers (Cayman Catalog # 400012) Procedure
A mouse promyelocytic cell line (MPRO) was used in this assay. These cells are committed immature neutrophils that can be differentiated into mature neutrophils by treatment with 10 μM all-trans retinoic acid for 72 hours.
Following 72 hours of differentiation, cells were stimulated with 1 μM of a calcium ionophore (A23187) in the presence or absence of test compound or vehicle for 1 hour at 37° C. After this time, supernatant was removed from the cells and the LTB4 levels were determined following manufacturer's instructions, using a Leukotriene B4 EIA kit from Cayman (Cat # 5201 11). The negative controls were media samples from differentiated but un-stimulated cells. The compounds were screened at 5 concentrations in quadruplicate starting at 10 μM.

The structures appear in SMILES notation.

Consider `Cc1c(O)c(-c2cc3ccccc3o2)c(C)c2c1CCC(C)(C)O2` [7-(1-benzofuran-2-yl)-2,2,5,8-tetramethylchroman-6-ol], for which the IC50 in test [1] is < 5 µM.

As for `Cc1c(O)cc2c(c1C)N(c1ccc(F)cc1)CC1(CCC1)C2` [1′-(4-fluorophenyl)-7′,8′-dimethyl-2′,4′-dihydro-1′H-spiro[cyclobutane-1,3′-quinolin]-6′-ol], the IC50 in test [1] is < 5 µM.

For the molecule `COc1ccc(N2CC3(CCC3)Cc3cc(O)c(C)c(C)c32)cc1` [1′-(4-methoxyphenyl)-7′,8′-dimethyl-2′,4′-dihydro-1′H-spiro[cyclobutane-1,3′-quinolin]-6′-ol], the IC50 in test [1] was < 5 µM.

With `CONC1CC2(CCC2)Oc2cc(C)c(O)c(C)c21` (stereo in doubt) [(4R)-4-(methoxyamino)-5,7-dimethyl-3,4-dihydrospiro[chromene-2,1′-cyclobutan]-6-ol], in test [2], the IC50 was < 0.3 µM. The EC50 (commonly the midpoint of the concentration-response curve) is < 10 µM in test [3] and < 5 µM in test [4].

In the case of `CONC1CC2(CCC2)Oc2cc(C)c(O)c(C)c21` (stereo in doubt) [(4S)-4-(methoxyamino)-5,7-dimethyl-3,4-dihydrospiro[chromene-2,1′-cyclobutan]-6-ol], the IC50 in test [2] is < 0.3 µM. The results for the EC50 in test [3] and in test [4] were < 10 µM and < 5 µM, respectively.

Take `COCC1=Cc2c(C)c(O)c(C)c(C)c2OC12CCC2` [3-(methoxymethyl)-5,7,8-trimethylspiro[chromene-2,1′-cyclobutan]-6-ol]: the IC50 in test [2] is < 0.3 µM. The concentration giving a half-maximal response (EC50) in test [3] is < 10 µM; in test [4] it was < 5 µM.

With `CCc1cc2c(c(CC)c1O)/C(=N/O)CC1(CCC1)O2` [5,7-diethyl-6-hydroxyspiro[chromene-2,1′-cyclobutan]-4(3H)-one oxime], the IC50 in test [2] is < 0.3 µM. Also, the values for the half-maximal effective concentration (EC50) in test [3] and in test [4] were < 10 µM and < 5 µM, respectively.

With `Cc1cc2c(c(C)c1O)/C(=N/O)CC1(CCC1)O2` [6-hydroxy-5,7-dimethylspiro[chromene-2,1′-cyclobutan]-4(3H)-one oxime], in test [2], the IC50 is < 0.3 µM. Moreover, the results for the EC50 in test [3] and in test [4] were < 10 µM and < 5 µM, respectively.

In the case of `CCO/N=C1\CC2(CCC2)Sc2c(C)c(C)c(O)c(C)c21` [6′-hydroxy-5′,7′,8′-trimethylspiro[cyclobutane-1,2′-thiochromen]-4′(3′H)-one O-ethyloxime], the IC50 in test [2] was < 0.3 µM. The values for the EC50 in test [3] and in test [4] were < 10 µM and < 5 µM, respectively.

In the case of `CCO/N=C1\CC2(CCC2)Sc2cc(C)c(O)c(C)c21` [6′-hydroxy-5′,7′-dimethylspiro[cyclobutane-1,2′-thiochromen]-4′(3′H)-one O-ethyloxime], in test [2], the IC50 is < 0.3 µM. The 50% effective concentration (EC50) is < 10 µM in test [3] and < 5 µM in test [4].

`CONC1CC2(CCC2)Oc2cc(C)c(O)c(C)c21` (stereo not drawn) [4-(methoxyamino)-5,7-dimethyl-3,4-dihydrospiro[chromene-2,1′-cyclobutan]-6-ol]: the IC50 in test [2] was < 0.3 µM. The EC50 in test [3] is < 10 µM; in test [4], < 5 µM.

Regarding `COC1c2c(C)c(O)c(C)c(C)c2OCC12CCC2` (stereo not drawn) [4-methoxy-5,7,8-trimethylspiro[chroman-3,1′-cyclobutan]-6-ol], the IC50 in test [2] is < 0.3 µM. Besides, the values for the EC50 in test [3] and in test [4] were < 10 µM and < 5 µM, respectively.

For `CC(C)c1cc2c(c(C(C)C)c1O)CCC1(CCC1)O2` [5,7-diisopropyl-3,4-dihydrospiro[chromene-2,1′-cyclobutan]-6-ol], the IC50 in test [2] was < 0.3 µM. The results for the 50% effective concentration (EC50) in test [3] and in test [4] were < 10 µM and < 5 µM, respectively.

As for `CCc1cc2c(c(CC)c1O)/C(=N/OC)CC1(CCC1)O2` [5,7-diethyl-6-hydroxyspiro[chromene-2,1′-cyclobutan]-4(3H)-one O-methyloxime], the IC50 in test [2] is < 0.3 µM. For the same molecule, the EC50 in test [3] was < 10 µM; in test [4] it was < 5 µM.

Turning to `CCOC1CC2(CCC2)Oc2cc(C)c(O)c(C)c21` (stereo not drawn) [4-ethoxy-5,7-dimethyl-3,4-dihydrospiro[chromene-2,1′-cyclobutan]-6-ol], the IC50 in test [2] was < 0.3 µM. Moreover, the results for the concentration giving a half-maximal response (EC50) in test [3] and in test [4] were < 10 µM and < 5 µM, respectively.

With `Cc1c(O)cc2c(c1C)OCC1(CCC1)C2` [7,8-dimethylspiro[chroman-3,1′-cyclobutan]-6-ol], the IC50 in test [2] was < 0.3 µM. The concentration giving a half-maximal response (EC50) in test [3] was < 10 µM; in test [4] it was < 5 µM.

For the molecule `CO/N=C1\CC2(CCC2)Sc2cc(C)c(O)c(C)c21` [6′-hydroxy-5′,7′-dimethylspiro[cyclobutane-1,2′-thiochromen]-4′(3′H)-one O-methyloxime], the IC50 in test [2] was < 0.3 µM. The concentration for a half-maximal effect (EC50) in test [3] is < 10 µM; in test [4] it was < 5 µM.

As for `COC1CC2(CCC2)Oc2cc(C)c(O)c(C)c21` (stereo not drawn) [4-methoxy-5,7-dimethyl-3,4-dihydrospiro[chromene-2,1′-cyclobutan]-6-ol], the IC50 in test [2] is < 0.3 µM. For the same molecule, the EC50 was < 10 µM in test [3] and < 5 µM in test [4].
